# Measured values taken from PMC5862592, “CDK8/19 inhibition induces premature G1/S transition and ATR-dependent cell death in prostate cancer cells” (Oncotarget, 2018).
# Read-outs that look alike come from different tables or passages of the source.
# What was measured:
# Assay in all cases: biochemical
# Parameters in all cases: KINOMEscan active site-directed competition binding assay (DiscoveRx), 456 kinases, per cent of control at 300 nM
# Settings in all cases: read-out: Percent of Control (%)
# TNK1 = TNK1 (Homo sapiens, UniProt Q13470)
# Method in brief: (§1)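 Active site-directed competition binding (KINOMEscan) across a 456-kinase panel, compounds tested at 300 nmol/L.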
# GAK = GAK (Homo sapiens, UniProt O14976)
# Method in brief: as §1
# NDR2 = molecular target: T1, NDR2 (Homo sapiens, UniProt Q9Y2H1)
# T1 construct: gene STK38L
# Method in brief: as §1
# MEK3 = molecular target: T2, MEK3 (Homo sapiens, UniProt P46734)
# T2 construct: gene MAP2K3
# Method in brief: as §1
# CHEK1 = CHEK1 (Homo sapiens, UniProt O14757)
# Method in brief: as §1
# SRC = SRC (Homo sapiens, UniProt P12931)
# Method in brief: as §1
# PKNB(M.tuberculosis) = PKNB(M.tuberculosis) (Mycobacterium tuberculosis, UniProt P9WI81)
# Method in brief: as §1
# ERBB4 = ERBB4 (Homo sapiens, UniProt Q15303)
# Method in brief: as §1
# [1] = molecular target: T3, JAK1(JH2domain-pseudokinase) (Homo sapiens, UniProt P23458)
# T3 construct: JH2domain-pseudokinase
# Method in brief: as §1
# PAK4 = PAK4 (Homo sapiens, UniProt O96013)
# Method in brief: as §1
# NIM1 = molecular target: T4, NIM1 (Homo sapiens, UniProt Q8IY84)
# T4 construct: gene NIM1K
# Method in brief: as §1
# PCTK3 = molecular target: T5, PCTK3 (Homo sapiens, UniProt Q07002)
# T5 construct: gene CDK18
# Method in brief: as §1
# PIM2 = PIM2 (Homo sapiens, UniProt Q9P1W9)
# Method in brief: as §1
# SNARK = molecular target: T6, SNARK (Homo sapiens, UniProt Q9H093)
# T6 construct: gene NUAK2
# Method in brief: as §1
# PRKCE = PRKCE (Homo sapiens, UniProt Q02156)
# Method in brief: as §1
# PKN1 = PKN1 (Homo sapiens, UniProt Q16512)
# Method in brief: as §1
# SGK2 = SGK2 (Homo sapiens, UniProt Q9HBY8)
# Method in brief: as §1
# TEC = TEC (Homo sapiens, UniProt P42680)
# Method in brief: as §1
# CSNK2A1 = CSNK2A1 (Homo sapiens, UniProt P68400)
# Method in brief: as §1
# PIK3C2B = PIK3C2B (Homo sapiens, UniProt O00750)
# Method in brief: as §1
# TGFBR1 = TGFBR1 (Homo sapiens, UniProt P36897)
# Method in brief: as §1
# LCK = LCK (Homo sapiens, UniProt P06239)
# Method in brief: as §1
# T3 sequence (P23458 whole entry): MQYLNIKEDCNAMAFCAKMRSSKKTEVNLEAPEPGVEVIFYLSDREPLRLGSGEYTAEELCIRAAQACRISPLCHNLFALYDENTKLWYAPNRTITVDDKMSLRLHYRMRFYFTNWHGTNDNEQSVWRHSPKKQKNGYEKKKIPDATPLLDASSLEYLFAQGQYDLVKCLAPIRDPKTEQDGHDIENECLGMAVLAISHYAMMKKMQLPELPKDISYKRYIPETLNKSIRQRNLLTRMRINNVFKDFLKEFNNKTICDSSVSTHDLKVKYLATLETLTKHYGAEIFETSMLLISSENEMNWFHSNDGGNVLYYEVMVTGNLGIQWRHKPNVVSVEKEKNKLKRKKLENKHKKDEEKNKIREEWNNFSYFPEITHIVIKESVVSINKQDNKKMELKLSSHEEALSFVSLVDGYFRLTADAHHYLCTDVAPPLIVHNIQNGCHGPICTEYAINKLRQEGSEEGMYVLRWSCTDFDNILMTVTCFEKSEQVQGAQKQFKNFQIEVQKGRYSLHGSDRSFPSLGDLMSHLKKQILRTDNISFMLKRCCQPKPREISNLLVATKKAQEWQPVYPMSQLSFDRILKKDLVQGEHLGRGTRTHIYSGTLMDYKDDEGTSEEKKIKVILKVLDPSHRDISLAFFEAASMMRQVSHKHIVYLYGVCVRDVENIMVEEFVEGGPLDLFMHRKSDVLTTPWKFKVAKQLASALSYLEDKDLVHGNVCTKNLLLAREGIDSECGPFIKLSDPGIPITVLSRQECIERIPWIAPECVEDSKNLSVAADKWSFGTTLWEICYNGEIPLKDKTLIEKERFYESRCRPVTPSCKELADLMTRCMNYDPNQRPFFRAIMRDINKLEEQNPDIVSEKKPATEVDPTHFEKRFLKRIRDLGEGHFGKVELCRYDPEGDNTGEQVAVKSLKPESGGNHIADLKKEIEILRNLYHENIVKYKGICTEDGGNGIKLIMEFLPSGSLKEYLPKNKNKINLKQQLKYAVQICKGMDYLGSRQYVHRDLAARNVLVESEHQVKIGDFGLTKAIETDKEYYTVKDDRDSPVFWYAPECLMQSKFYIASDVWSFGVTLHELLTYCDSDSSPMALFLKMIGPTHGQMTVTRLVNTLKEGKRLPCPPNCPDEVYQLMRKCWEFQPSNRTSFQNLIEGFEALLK
# T5 sequence (Q07002 whole entry): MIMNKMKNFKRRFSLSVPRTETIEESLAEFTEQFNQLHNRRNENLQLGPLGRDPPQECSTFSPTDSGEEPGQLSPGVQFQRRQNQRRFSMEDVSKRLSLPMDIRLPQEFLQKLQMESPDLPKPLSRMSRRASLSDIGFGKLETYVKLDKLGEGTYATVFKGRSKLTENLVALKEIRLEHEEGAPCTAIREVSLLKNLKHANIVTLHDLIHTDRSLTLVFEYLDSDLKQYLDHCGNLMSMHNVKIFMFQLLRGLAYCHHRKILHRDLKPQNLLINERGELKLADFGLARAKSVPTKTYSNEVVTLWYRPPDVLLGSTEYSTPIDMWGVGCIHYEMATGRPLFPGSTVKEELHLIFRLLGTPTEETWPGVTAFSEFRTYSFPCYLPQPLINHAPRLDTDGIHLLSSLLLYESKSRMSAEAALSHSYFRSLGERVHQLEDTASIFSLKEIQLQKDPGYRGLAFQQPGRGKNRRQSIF
# Chain of TGFBR1 (P36897 whole entry): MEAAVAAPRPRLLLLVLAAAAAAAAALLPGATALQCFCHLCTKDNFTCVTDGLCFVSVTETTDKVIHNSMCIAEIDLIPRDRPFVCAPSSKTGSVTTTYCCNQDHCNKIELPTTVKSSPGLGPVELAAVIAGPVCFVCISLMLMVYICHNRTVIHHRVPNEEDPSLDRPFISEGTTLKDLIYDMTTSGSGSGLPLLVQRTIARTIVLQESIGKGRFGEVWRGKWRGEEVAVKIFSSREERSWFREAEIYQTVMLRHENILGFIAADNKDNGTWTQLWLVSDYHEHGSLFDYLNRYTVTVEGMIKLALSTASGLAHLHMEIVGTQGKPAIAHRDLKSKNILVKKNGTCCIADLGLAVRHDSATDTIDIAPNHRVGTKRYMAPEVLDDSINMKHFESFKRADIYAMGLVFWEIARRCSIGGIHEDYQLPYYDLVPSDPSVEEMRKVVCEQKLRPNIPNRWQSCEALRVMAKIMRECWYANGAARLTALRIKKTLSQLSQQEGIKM
# T4 sequence (Q8IY84 whole entry): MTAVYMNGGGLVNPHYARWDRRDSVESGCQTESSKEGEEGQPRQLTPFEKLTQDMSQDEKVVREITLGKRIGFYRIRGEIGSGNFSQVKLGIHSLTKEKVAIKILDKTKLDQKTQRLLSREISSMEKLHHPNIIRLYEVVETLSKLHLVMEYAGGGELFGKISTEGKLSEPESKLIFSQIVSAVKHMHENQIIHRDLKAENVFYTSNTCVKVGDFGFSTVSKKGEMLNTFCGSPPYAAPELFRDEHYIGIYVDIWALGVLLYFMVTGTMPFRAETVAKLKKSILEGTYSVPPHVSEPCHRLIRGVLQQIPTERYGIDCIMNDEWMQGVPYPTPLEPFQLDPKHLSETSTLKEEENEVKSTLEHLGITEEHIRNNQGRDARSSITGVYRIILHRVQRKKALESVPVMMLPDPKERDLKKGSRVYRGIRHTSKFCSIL
# Chain of ERBB4 (Q15303 whole entry): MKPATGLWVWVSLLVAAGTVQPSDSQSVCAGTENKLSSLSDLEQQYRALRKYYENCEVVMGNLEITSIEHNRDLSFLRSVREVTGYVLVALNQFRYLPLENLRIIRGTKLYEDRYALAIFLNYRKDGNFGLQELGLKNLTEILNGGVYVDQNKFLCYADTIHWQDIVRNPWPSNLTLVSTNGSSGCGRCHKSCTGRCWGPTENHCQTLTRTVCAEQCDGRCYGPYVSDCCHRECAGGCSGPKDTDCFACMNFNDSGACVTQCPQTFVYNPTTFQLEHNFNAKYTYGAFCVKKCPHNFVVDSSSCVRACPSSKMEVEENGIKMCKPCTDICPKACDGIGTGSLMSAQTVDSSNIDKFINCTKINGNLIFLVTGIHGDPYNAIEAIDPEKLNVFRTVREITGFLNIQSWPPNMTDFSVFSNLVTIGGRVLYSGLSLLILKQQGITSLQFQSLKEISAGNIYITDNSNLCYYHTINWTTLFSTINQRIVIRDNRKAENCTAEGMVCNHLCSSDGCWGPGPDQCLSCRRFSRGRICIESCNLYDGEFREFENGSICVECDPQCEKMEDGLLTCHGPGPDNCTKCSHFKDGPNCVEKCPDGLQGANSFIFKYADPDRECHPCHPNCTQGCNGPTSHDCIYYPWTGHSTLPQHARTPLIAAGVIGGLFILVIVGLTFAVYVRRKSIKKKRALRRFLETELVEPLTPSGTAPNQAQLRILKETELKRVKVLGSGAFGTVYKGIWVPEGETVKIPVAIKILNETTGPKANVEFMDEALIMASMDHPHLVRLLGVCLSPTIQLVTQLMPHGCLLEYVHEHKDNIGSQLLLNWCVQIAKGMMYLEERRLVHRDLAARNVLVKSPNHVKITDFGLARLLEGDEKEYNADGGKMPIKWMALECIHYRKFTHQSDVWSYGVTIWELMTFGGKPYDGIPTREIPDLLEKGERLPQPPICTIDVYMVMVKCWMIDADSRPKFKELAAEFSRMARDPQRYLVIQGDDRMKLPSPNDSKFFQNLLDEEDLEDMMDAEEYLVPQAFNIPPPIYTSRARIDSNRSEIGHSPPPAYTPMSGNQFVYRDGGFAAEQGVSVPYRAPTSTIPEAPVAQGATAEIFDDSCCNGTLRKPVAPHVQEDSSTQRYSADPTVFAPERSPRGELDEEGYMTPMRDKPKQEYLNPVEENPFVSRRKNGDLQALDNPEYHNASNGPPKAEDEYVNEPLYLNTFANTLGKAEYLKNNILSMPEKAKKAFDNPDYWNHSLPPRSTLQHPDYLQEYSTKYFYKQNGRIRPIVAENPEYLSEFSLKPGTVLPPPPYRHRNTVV
# Chain of TNK1 (Q13470 whole entry): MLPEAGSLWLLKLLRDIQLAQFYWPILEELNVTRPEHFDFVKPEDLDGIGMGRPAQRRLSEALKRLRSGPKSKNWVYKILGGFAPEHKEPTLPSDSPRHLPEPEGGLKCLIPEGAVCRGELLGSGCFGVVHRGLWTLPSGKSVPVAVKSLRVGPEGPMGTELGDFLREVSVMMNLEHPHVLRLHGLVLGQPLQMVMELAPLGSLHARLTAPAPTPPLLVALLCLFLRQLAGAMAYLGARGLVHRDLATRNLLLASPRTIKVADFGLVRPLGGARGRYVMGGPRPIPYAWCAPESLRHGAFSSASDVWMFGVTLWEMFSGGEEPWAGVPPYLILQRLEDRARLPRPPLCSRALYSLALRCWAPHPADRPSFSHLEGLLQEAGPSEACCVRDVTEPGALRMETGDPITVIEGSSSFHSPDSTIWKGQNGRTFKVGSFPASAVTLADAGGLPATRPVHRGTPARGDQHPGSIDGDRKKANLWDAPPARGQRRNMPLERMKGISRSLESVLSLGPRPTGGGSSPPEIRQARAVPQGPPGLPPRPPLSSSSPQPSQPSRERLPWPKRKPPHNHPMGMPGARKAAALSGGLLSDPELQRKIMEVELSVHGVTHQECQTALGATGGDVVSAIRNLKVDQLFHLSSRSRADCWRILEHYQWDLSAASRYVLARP
# Chain of PIM2 (Q9P1W9 whole entry): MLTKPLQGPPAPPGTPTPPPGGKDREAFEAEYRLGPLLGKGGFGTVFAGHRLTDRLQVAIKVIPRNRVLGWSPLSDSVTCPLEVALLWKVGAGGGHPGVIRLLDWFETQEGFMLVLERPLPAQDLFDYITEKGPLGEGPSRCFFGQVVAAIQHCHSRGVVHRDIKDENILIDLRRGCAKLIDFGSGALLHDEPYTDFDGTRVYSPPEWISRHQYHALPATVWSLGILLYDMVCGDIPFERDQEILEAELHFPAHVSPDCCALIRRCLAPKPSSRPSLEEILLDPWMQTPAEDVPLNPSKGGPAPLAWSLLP
smiles,measurement,setting,value
"O=C(/C=C/c1cnccc1-c1ccc(F)cc1)Nc1ccc(CCc2nnco2)cc1 [T-418, (2E)-3-(4-(4-fluorophenyl)pyridin-3-yl)-N-(4-(2-(1,3,4-oxadiazol-2-yl)ethyl)phenyl)acrylamide]",remaining binding at 0.3 µM,TNK1; sheet T-418,87%
same,remaining binding at 0.3 µM,GAK; sheet T-418,100%
same,remaining binding at 0.3 µM,NDR2; sheet T-418,100%
same,remaining binding at 0.3 µM,MEK3; sheet T-418,100%
same,remaining binding at 0.3 µM,CHEK1; sheet T-418,100%
same,remaining binding at 0.3 µM,SRC; sheet T-418,90%
same,remaining binding at 0.3 µM,PKNB(M.tuberculosis); sheet T-418,84%
same,remaining binding at 0.3 µM,ERBB4; sheet T-418,89%
same,remaining binding at 0.3 µM,[1]; sheet T-418,100%
same,remaining binding at 0.3 µM,PAK4; sheet T-418,99%
same,remaining binding at 0.3 µM,NIM1; sheet T-418,100%
same,remaining binding at 0.3 µM,PCTK3; sheet T-418,100%
same,remaining binding at 0.3 µM,PIM2; sheet T-418,89%
same,remaining binding at 0.3 µM,SNARK; sheet T-418,60%
same,remaining binding at 0.3 µM,PRKCE; sheet T-418,39%
same,remaining binding at 0.3 µM,PKN1; sheet T-418,48%
same,remaining binding at 0.3 µM,SGK2; sheet T-418,94%
same,remaining binding at 0.3 µM,TEC; sheet T-418,98%
same,remaining binding at 0.3 µM,CSNK2A1; sheet T-418,84%
same,remaining binding at 0.3 µM,PIK3C2B; sheet T-418,88%
same,remaining binding at 0.3 µM,TGFBR1; sheet T-418,94%
same,remaining binding at 0.3 µM,LCK; sheet T-418,98%
"Cc1ncccc1Oc1sc(C(N)=O)c2c1-c1c(cnn1C)CC2 [T-474, 1-methyl-8-((2-methylpyridin-3-yl)oxy)-4,5-dihydro-1H-thieno[3,4-g]indazole-6-carboxamide]",remaining binding at 0.3 µM,TNK1,98%
same,remaining binding at 0.3 µM,GAK,92%
same,remaining binding at 0.3 µM,NDR2,100%
same,remaining binding at 0.3 µM,MEK3,100%
same,remaining binding at 0.3 µM,CHEK1,100%
same,remaining binding at 0.3 µM,SRC,96%
same,remaining binding at 0.3 µM,PKNB(M.tuberculosis),75%
same,remaining binding at 0.3 µM,ERBB4,100%
same,remaining binding at 0.3 µM,[1],100%
same,remaining binding at 0.3 µM,PAK4,100%
same,remaining binding at 0.3 µM,NIM1,63%
same,remaining binding at 0.3 µM,PCTK3,100%
same,remaining binding at 0.3 µM,PIM2,80%
same,remaining binding at 0.3 µM,SNARK,74%
same,remaining binding at 0.3 µM,PRKCE,35%
same,remaining binding at 0.3 µM,PKN1,54%
same,remaining binding at 0.3 µM,SGK2,95%
same,remaining binding at 0.3 µM,TEC,100%
same,remaining binding at 0.3 µM,CSNK2A1,61%
same,remaining binding at 0.3 µM,PIK3C2B,86%
same,remaining binding at 0.3 µM,TGFBR1,81%
same,remaining binding at 0.3 µM,LCK,100%
